Test results as given in PubChem BioAssay AID330 (DTP/NCI, 2004).
Several values for one entry are separate records, joined by “and”; a condition that tells them apart may be missing. Identical values can stand only once. Toxic doses and inconclusive results are not listed.

System: P388 leukemia ip, CD2F1 mice, survival T/C
Test: NCI In Vivo Anticancer Drug Screen. Data for tumor model P388 Leukemia (intraperitoneal) in CD2F1 (CDF1) mice
Settings: endpoint: median survival time, higher = longer survival
Outline: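 Mice carrying the transplanted tumor received test compound or vehicle. Survival was recorded in each group, and the value is the treated-group measurement divided by that of the vehicle-treated control group.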

[1] = dose: 100.0 mg/kg/injection, schedule: Q04DX003 (ip), vehicle: saline with Tween-80
[2] = dose: 200.0 mg/kg/injection, schedule: Q04DX003 (ip), vehicle: saline with Tween-80
[3] = dose: 400.0 mg/kg/injection, schedule: Q04DX003 (ip), vehicle: saline with Tween-80
[4] = dose: 50.0 mg/kg/injection, schedule: Q01DX009 (ip), vehicle: saline with Tween-80
[5] = dose: 100.0 mg/kg/injection, schedule: Q01DX009 (ip), vehicle: saline with Tween-80
[6] = dose: 200.0 mg/kg/injection, schedule: Q01DX009 (ip), vehicle: saline with Tween-80
[7] = dose: 100.0 mg/kg/injection, schedule: Q04DX002 (ip), vehicle: Klucel (hydroxypropylcellulose) (HPC)
[8] = dose: 200.0 mg/kg/injection, schedule: Q04DX002 (ip), vehicle: Klucel (hydroxypropylcellulose) (HPC)
[9] = dose: 200.0 mg/kg/injection, schedule: Q01DX005 (ip), vehicle: saline with Tween-80
[10] = dose: 60.0 mg/kg/injection, schedule: Q01DX005 (ip), vehicle: saline with Tween-80
[11] = dose: 120.0 mg/kg/injection, schedule: Q01DX005 (ip), vehicle: saline with Tween-80
[12] = dose: 240.0 mg/kg/injection, schedule: Q01DX005 (ip), vehicle: saline with Tween-80
[13] = dose: 50.0 mg/kg/injection, schedule: Q01DX009 (ip), vehicle: saline
[14] = dose: 50.0 mg/kg/injection, schedule: Q04DX003 (ip), vehicle: Klucel (hydroxypropylcellulose) (HPC)
[15] = dose: 100.0 mg/kg/injection, schedule: Q04DX003 (ip), vehicle: Klucel (hydroxypropylcellulose) (HPC)
[16] = dose: 200.0 mg/kg/injection, schedule: Q04DX003 (ip), vehicle: Klucel (hydroxypropylcellulose) (HPC)

SMILES: OC1(C2(O)CCCC2)CCCC1
- T/C [1]: 100 % of control
- T/C [2]: 104 % of control
- T/C [3]: 95 % of control

SMILES: O=C1NC(=O)C2C1C(C(=O)O)C1C3C(=O)NC(=O)C3C1C2C(=O)O (stereo not given)
- T/C (dose: 25.0 mg/kg/injection, schedule: Q01DX009 (ip), vehicle: saline with Tween-80): 91 % of control
- T/C [4]: 94 % of control
- T/C [5]: 97 % of control
- T/C [6]: 91 % of control and 92 % of control
- T/C (dose: 400.0 mg/kg/injection, schedule: Q01DX009 (ip), vehicle: saline with Tween-80): 96 % of control

SMILES: CCOc1ccc(Nc2nc(C(Cl)(Cl)Cl)cc(C(Cl)(Cl)Cl)n2)cc1CN(CC)CC
- T/C (dose: 6.25 mg/kg/injection, schedule: Q01DX009 (ip), vehicle: saline sonified): 100 % of control
- T/C (dose: 12.5 mg/kg/injection, schedule: Q01DX009 (ip), vehicle: saline sonified): 100 % of control
- T/C (dose: 25.0 mg/kg/injection, schedule: Q01DX009 (ip), vehicle: saline sonified): 100 % of control

SMILES: Clc1ccccc1CSCc1c(CSCc2ccccc2Cl)c(CSCc2ccccc2Cl)c(CSCc2ccccc2Cl)c(CSCc2ccccc2Cl)c1CSCc1ccccc1Cl
- T/C [4]: 102 % of control
- T/C [5]: 100 % of control
- T/C [6]: 100 % of control

SMILES: O=C(O)C1(Cc2ccc(O)cc2)NCCS1 (stereo not given)
- T/C [7]: 104 % of control
- T/C [8]: 104 % of control

SMILES: Nc1nc2ncc(CNc3ccc(C(=O)NC(CCC(=O)O)C(=O)O)cc3)cc2c(=O)[nH]1 (stereo not given)
- T/C (dose: 50.0 mg/kg/injection, schedule: Q01DX005 (ip), vehicle: saline with Tween-80): 100 % of control
- T/C (dose: 100.0 mg/kg/injection, schedule: Q01DX005 (ip), vehicle: saline with Tween-80): 117 % of control
- T/C [9]: 102 % of control

SMILES: CC(C)=Cc1cc(-c2cc(C=C(C)C)[nH]n2)n[nH]1
- T/C [10]: 97 % of control
- T/C [11]: 100 % of control
- T/C [12]: 102 % of control

SMILES: C/C(=N\N)C1C(=O)c2ccccc2C1=O
- T/C (dose: 6.25 mg/kg/injection, schedule: Q01DX009 (ip), vehicle: saline): 100 % of control
- T/C (dose: 12.5 mg/kg/injection, schedule: Q01DX009 (ip), vehicle: saline): 105 % of control
- T/C (dose: 25.0 mg/kg/injection, schedule: Q01DX009 (ip), vehicle: saline): 101 % of control and 86 % of control
- T/C [13]: 98 % of control

SMILES: O=C(Cc1nc2ccc([N+](=O)[O-])cc2nc1CC(=O)c1ccccc1)c1ccccc1
- T/C [10]: 110 % of control
- T/C [11]: 103 % of control
- T/C [12]: 100 % of control

SMILES: O=C1CSc2cc(F)ccc2N1
- T/C [13]: 91 % of control
- T/C (dose: 100.0 mg/kg/injection, schedule: Q01DX009 (ip), vehicle: saline): 91 % of control
- T/C (dose: 200.0 mg/kg/injection, schedule: Q01DX009 (ip), vehicle: saline): 97 % of control

SMILES: O=C(NCCc1ccccc1)c1ccccc1
- T/C (dose: 50.0 mg/kg/injection, schedule: Q04DX003 (ip), vehicle: saline with Tween-80): 100 % of control
- T/C [1]: 90 % of control
- T/C [2]: 95 % of control
- T/C [3]: 100 % of control

SMILES: Nc1ccc2c(c1)Oc1ccc(N)cc1O2
- T/C [10]: 102 % of control
- T/C [11]: 100 % of control
- T/C [12]: 106 % of control

SMILES: O=C1CCS(=O)(=O)C(=O)N1c1ccccc1
- T/C (dose: 50.0 mg/kg/injection, schedule: Q01DX009 (ip), vehicle: Klucel (hydroxypropylcellulose) (HPC)): 100 % of control
- T/C (dose: 100.0 mg/kg/injection, schedule: Q01DX009 (ip), vehicle: Klucel (hydroxypropylcellulose) (HPC)): 97 % of control
- T/C (dose: 200.0 mg/kg/injection, schedule: Q01DX009 (ip), vehicle: Klucel (hydroxypropylcellulose) (HPC)): 87 % of control

SMILES: COc1nc2c(=O)[nH]cnc2n1C1OC(CO)C(O)C1O (stereo not given)
- T/C (dose: 60.0 mg/kg/injection, schedule: Q01DX005 (ip), vehicle: saline): 104 % of control
- T/C (dose: 120.0 mg/kg/injection, schedule: Q01DX005 (ip), vehicle: saline): 97 % of control
- T/C (dose: 240.0 mg/kg/injection, schedule: Q01DX005 (ip), vehicle: saline): 98 % of control

SMILES: Cc1ccc(S(=O)(=O)Nn2nnc(-c3ccccc3)n2)cc1
- T/C [14]: 98 % of control
- T/C [15]: 102 % of control
- T/C [16]: 102 % of control

SMILES: Cc1cc(C)n2c(-c3ccccc3)c(C)c(C(N)=O)c2n1
- T/C [10]: 98 % of control
- T/C [11]: 99 % of control
- T/C [12]: 100 % of control

SMILES: C=C(C)C(=O)OC1C/C(CO)=C\C(O)C/C(C)=C/C2OC(=O)C(=C)C21 (stereo not given)
- T/C (dose: 1.25 mg/kg/injection, schedule: Q01DX009 (ip), vehicle: saline + alcohol): 121 % of control
- T/C (dose: 2.5 mg/kg/injection, schedule: Q01DX009 (ip), vehicle: saline + alcohol): 104 % of control
- T/C (dose: 10.0 mg/kg/injection, schedule: Q01DX009 (ip), vehicle: saline + alcohol): 159 % of control
- T/C (dose: 20.0 mg/kg/injection, schedule: Q01DX009 (ip), vehicle: saline + alcohol): 167 % of control

SMILES: COc1c(O)c(O)cc2c1-c1ccc(OC)c(=O)cc1C(NC(C)=O)CC2 (stereo not given)
- T/C (dose: 1.25 mg/kg/injection, schedule: Q01DX009 (ip), vehicle: water): 114 % of control
- T/C (dose: 2.5 mg/kg/injection, schedule: Q01DX009 (ip), vehicle: water): 117 % of control
- T/C (dose: 20.0 mg/kg/injection, schedule: Q01DX009 (ip), vehicle: water): 166 % of control and 177 % of control
- T/C (dose: 40.0 mg/kg/injection, schedule: Q01DX009 (ip), vehicle: water): 204 % of control

SMILES: COC(=O)c1cc(=O)n(-c2ccccc2C(F)(F)F)c(SC)n1
- T/C [14]: 95 % of control and 97 % of control
- T/C [15]: 99 % of control and 100 % of control
- T/C [16]: 104 % of control and 111 % of control
- T/C (dose: 400.0 mg/kg/injection, schedule: Q04DX003 (ip), vehicle: Klucel (hydroxypropylcellulose) (HPC)): 110 % of control

SMILES: C/C(=N\NC(N)=O)C1(c2ccccc2)CCN(C)CC1
- T/C [7]: 100 % of control
- T/C [8]: 97 % of control
- T/C (dose: 400.0 mg/kg/injection, schedule: Q04DX002 (ip), vehicle: Klucel (hydroxypropylcellulose) (HPC)): 96 % of control

SMILES: O=C(NC1CCC(CC2CCC(NC(=O)C34CC5CC(CC(C5)C3)C4)CC2)CC1)C12CC3CC(CC(C3)C1)C2 (stereo not given)
- T/C (dose: 0.4 mg/kg/injection, schedule: Q01DX005 (ip), vehicle: saline with Tween-80): 97 % of control
- T/C (dose: 0.8 mg/kg/injection, schedule: Q01DX005 (ip), vehicle: saline with Tween-80): 98 % of control
- T/C (dose: 1.56 mg/kg/injection, schedule: Q01DX005 (ip), vehicle: saline with Tween-80): 91 % of control
- T/C (dose: 1.6 mg/kg/injection, schedule: Q01DX005 (ip), vehicle: saline with Tween-80): 97 % of control
- T/C (dose: 3.2 mg/kg/injection, schedule: Q01DX005 (ip), vehicle: saline with Tween-80): 87 % of control
- T/C (dose: 6.25 mg/kg/injection, schedule: Q01DX005 (ip), vehicle: saline with Tween-80): 89 % of control
- T/C [9]: 86 % of control

SMILES: COC1C(C)OC(OC2CC(C)(O)C(C(=O)O)c3cc4c(c(O)c32)C(=O)c2c(O)cc3c(c2C4=O)OC2OC3(C)C(O)C(N(C)C)C2O)C(OC)C1(C)OC (stereo not given)
- T/C (dose: 1.25 mg/kg/injection, schedule: Q04DX003 (ip), vehicle: other): 119 % of control
- T/C (dose: 2.5 mg/kg/injection, schedule: Q04DX003 (ip), vehicle: other): 113 % of control
- T/C (dose: 5.0 mg/kg/injection, schedule: Q04DX003 (ip), vehicle: other): 122 % of control
- T/C (dose: 20.0 mg/kg/injection, schedule: Q04DX003 (ip), vehicle: other): 155 % of control

SMILES: Cc1cc[n+](CCc2c[nH]c3ccccc23)cc1C
- T/C (dose: 12.5 mg/kg/injection, schedule: Q01DX005 (ip), vehicle: saline): 100 % of control
- T/C (dose: 25.0 mg/kg/injection, schedule: Q01DX005 (ip), vehicle: saline): 97 % of control
- T/C (dose: 50.0 mg/kg/injection, schedule: Q01DX005 (ip), vehicle: saline): 105 % of control and 95 % of control
